In brackets after ≈: the same amount, converted by molar mass. Like-named read-outs stand apart in the source and are kept apart here.
Key:
[1] = tested on: E. coli EW1b; experiment: Overexpression assay, MIC for pump-negative (tolC) E. coli EW1b; type: cell-based; conditions: Escherichia coli
Method: (§1) Whole-cell antimicrobial activity was determined by broth microdilution as described previously. The test strains except for S. pneumoniae were grown to mid-log phase in Mueller–Hinton broth and diluted 1,000-fold in the same medium. Cells (10^5/mL) were inoculated into Mueller–Hinton broth and dispensed at 0.2 mL/well into a 96-well microtiter plate. S. pneumoniae was grown in tryptic soy broth supplemented with 5% sheep blood. MICs were determined in triplicate by serial 2-fold dilutions of test compounds. […] Bacterial growth was determined by measuring the absorption at 650 nm by using a microtiter ELISA reader.
(§2) An overexpression assay using S. aureus RN4220, S. aureus RN4220 (pE194), and S. aureus RN4220 (pE194-fabI) was conducted to perform target validation of FabI inhibitors as described previously. Additionally, both fabI- and fabK-overexpressing E. coli were constructed to test a multitarget effect of the compounds. The wild-type fabI gene from the genomic DNA of E. coli W3110 was amplified by PCR by using the primers 5′-[…]-3′ and 5′-[…]-3′. The wild-type fabK gene from the genomic DNA of S. pneumoniae KCTC 5412 was amplified by PCR by using the primers 5′-[…]-3′ and 5′-[…] […]-3′. The resulting products were cloned into the pBAD-TOPO TA expression vector (Invitrogen, Carlsbad, CA, USA) to yield the pBAD-fabI and pBAD-fabK recombinant plasmids, which placed the expression of the genes fabI and fabK, respectively, under the control of the arabinose promoter. Recombinant pBAD-fabI and pBAD-fabK were then introduced into the pump-negative (tolC) E. coli EW1b via electroporation to generate E. coli EW1b (pBAD-fabI) and E. coli EW1b (pBAD-fabK), respectively.

[2] = tested on: E. coli EW1b(pBAD-fabI); experiment: Overexpression assay, MIC for fabI-overexpressing E. coli EW1b (pBAD-fabI); type: cell-based; conditions: Escherichia coli
Method: as §1, §2

[3] = tested on: E. coli EW1b(pBAD-fabK); experiment: Overexpression assay, MIC for fabK-overexpressing E. coli EW1b (pBAD-fabK); type: cell-based; conditions: Escherichia coli
Method: as §1, §2

[4] = tested on: E. coli EW1b(pBAD); experiment: Overexpression assay, MIC for vector-containing E. coli EW1b (pBAD); type: cell-based; conditions: Escherichia coli
Method: as §1, §2

[5] = target: T1, E. coli FabI (Escherichia coli, UniProt P0AEK4); experiment: E. coli FabI enzyme assay (NADH as cofactor); type: biochemical
T1 construct: made in house
From the text: (§3) S. aureus FabI and E. coli FabI enzymes were cloned, overexpressed, and purified as described previously. The wild-type fabK gene was amplified by PCR from genomic DNA obtained from Streptococcus pneumoniae KCTC 5412 by using the primers 5′-[…]-3′ and 5′-[…]-3′, which contained NdeI and XhoI restriction sites, respectively. After the DNA sequence was confirmed, the gene was cloned into the pET22b vector (Novagen, Gibbstown, NJ, USA). The construct was transformed into E. coli BL21 (DE3) for expression following induction with isopropylthiogalactoside. The C-terminal His-tagged protein was purified as described previously. Assays were conducted in half-area, 96-well microtiter plates. The compounds were dissolved in DMSO and evaluated in 100-μL assay mixtures containing components specific for each enzyme (see below). Reduction of the trans-2-octenoyl N-acetylcysteamine (t-o-NAC thioester) substrate analog was measured spectrophotometrically following the utilization of NADH or NADPH at 340 nm at 30°C for the linear period of the assay. S. aureus FabI assays contained 50 mM sodium acetate (pH 6.5), 200 μM t-o-NAC thioester, 200 μM NADPH, and 150 nM S. aureus FabI.
(§4) NADH was used as a cofactor rather than NADPH for the E. coli FabI assay. Substrate concentrations used for the Lineweaver–Burk plot were 100, 200, 300, and 400 μM, whereas the concentrations of the cofactor were 100, 200, 400, and 600 μM. The rate of decrease in the amount of NADPH in each reaction was measured with a microtiter enzyme-linked immunosorbent assay (ELISA) reader by using the SOFTmax PRO software (Molecular Devices, Sunnyvale, CA, USA). The inhibitory activity was calculated according to the following formula: % of inhibition = 100× [1− (rate in the presence of compound/rate in the untreated control)]. IC50 values were calculated by fitting the data to a sigmoid equation. An equal volume of DMSO solvent was used for the untreated control. FabK assays contained 100 mM sodium acetate (pH 6.5), 2% glycerol, 200 mM NH4Cl, 50 µM t-o-NAC thioester, 200 µM NADH, and 150 nM S. pneumoniae FabK.

[6] = tested on: S. pneumoniae KCTC 3932; experiment: MIC by broth microdilution, S. pneumoniae KCTC 3932; type: cell-based; conditions: Streptococcus pneumoniae, KCTC3932, read-out: MIC S. pneumoniae
Method: as §1

[7] = tested on: S. aureus RN4220; experiment: MIC by broth microdilution, S. aureus RN4220 (wild type); type: cell-based, Staphylococcus aureus; conditions: Staphylococcus aureus; S. aureus RN4220 (wild type)
Method: as §1

[8] = target: T2, S. aureus FabI (Staphylococcus aureus, UniProt Q6GI75); experiment: S. aureus FabI enzyme assay (NADPH use at 340 nm, t-o-NAC thioester substrate); type: biochemical
T2 construct: made in house
T2 sequence (Q6GI75 1-256): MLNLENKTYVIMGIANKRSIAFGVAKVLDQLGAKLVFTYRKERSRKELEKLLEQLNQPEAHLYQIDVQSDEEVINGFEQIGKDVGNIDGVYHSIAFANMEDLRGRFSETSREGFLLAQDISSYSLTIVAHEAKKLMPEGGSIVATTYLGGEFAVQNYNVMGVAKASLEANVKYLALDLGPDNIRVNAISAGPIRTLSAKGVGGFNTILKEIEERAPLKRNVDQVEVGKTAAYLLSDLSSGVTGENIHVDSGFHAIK
From the text: as §3, §4

[9] = target: T3, S. pneumoniae FabK (Streptococcus pneumoniae, UniProt Q9FBC5); experiment: S. pneumoniae FabK enzyme assay; type: biochemical
T3 sequence (Q9FBC5 1-324): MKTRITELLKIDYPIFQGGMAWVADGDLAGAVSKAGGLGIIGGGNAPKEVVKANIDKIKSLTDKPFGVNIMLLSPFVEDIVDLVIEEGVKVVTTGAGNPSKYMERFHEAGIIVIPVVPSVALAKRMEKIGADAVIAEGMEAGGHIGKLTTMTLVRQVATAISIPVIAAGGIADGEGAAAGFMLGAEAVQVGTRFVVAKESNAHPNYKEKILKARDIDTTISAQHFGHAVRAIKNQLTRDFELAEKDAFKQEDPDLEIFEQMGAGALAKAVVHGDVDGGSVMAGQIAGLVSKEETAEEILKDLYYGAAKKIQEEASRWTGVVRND
From the text: as §3, §4

[10] = tested on: E. coli KCTC 1924; experiment: MIC by broth microdilution, E. coli KCTC 1924; type: cell-based; conditions: Escherichia coli, KCTC1924, read-out: MIC E. coli
Method: as §1

[11] = tested on: S. aureus RN4220 (pE194); experiment: Overexpression assay, MIC for vector-containing S. aureus RN4220 (pE194); type: cell-based; conditions: Staphylococcus aureus, read-out: MIC S. aureus (pE194)
Method: as §1, §2

[12] = tested on: S. aureus RN4220 (pE194-fabI); experiment: Overexpression assay, MIC for fabI-overexpressing S. aureus RN4220 (pE194-fabI); type: cell-based; conditions: Staphylococcus aureus, read-out: MIC S. aureus (pE194-fabI)
Method: as §1, §2

[13] = tested on: S. pneumoniae KCTC 3932; experiment: Inhibition of macromolecular biosynthesis (radiolabeled precursor incorporation) in S. pneumoniae; type: cell-based, Streptococcus pneumoniae; conditions: drugs at 2 times the MIC
Method: (§5) To monitor the effects of compound 1 on lipid, DNA, RNA, protein, and cell wall biosynthesis, its effects on the incorporation of [1-^14C] acetate (50 mCi/mmol), [2-^14C] thymidine (59.8 mCi/mmol), [U-^14C] uridine (539 mCi/mmol), L-[U-^14C] leucine (306 mCi/mmol) or L-[U-^14C] isoleucine (329 mCi/mmol), and N-acetyl-D-[1-^14C] glucosamine (58.1 mCi/mmol) into S. aureus and S. pneumoniae were measured as described previously. S. aureus was exponentially grown to an A650 of 0.2 in Mueller–Hinton broth. S. pneumoniae was grown in tryptic soy broth supplemented with 5% sheep blood. […] An equal volume of DMSO solvent was added to the untreated control. After incubation with the radiolabeled precursors at 37°C for 1 h, followed by centrifugation, the cell pellets were washed twice with PBS buffer. After acetate incorporation, the total cellular lipids were extracted with chloroform-methanol-water. The incorporated radioactivity in the chloroform phase was measured by scintillation counting. For the other precursors, incorporation was terminated by adding 10% (w/v) TCA and cooling on ice for 20 min. The precipitated material was collected on Whatman GF/C glass microfiber filters, washed with TCA and ethanol, dried, and counted using a scintillation counter. The total counts incorporated at 1 h of incubation without inhibitors ranged from >7,000 for [U-^14C] uridine to <13,000 for [1-^14C] acetate. […] In all experiments, known antibacterial agents were included as positive controls.

[14] = tested on: S. aureus RN4220; experiment: Inhibition of macromolecular biosynthesis (radiolabeled precursor incorporation) in S. aureus; type: cell-based, Staphylococcus aureus; conditions: drugs at 2 times the MIC
Method: as §5

[15] = read-out: MIC E. coli EW1b (+) Ara
[16] = read-out: MIC E. coli EW1b (−) Ara
[17] = read-out: MIC E. coli EW1b(pBAD-fabI) (+) Ara
[18] = read-out: MIC E. coli EW1b(pBAD-fabI) (−) Ara
[19] = read-out: MIC E. coli EW1b(pBAD-fabK) (+) Ara
[20] = read-out: MIC E. coli EW1b(pBAD-fabK) (−) Ara
[21] = read-out: MIC E. coli EW1b(pBAD) (+) Ara
[22] = read-out: MIC E. coli EW1b(pBAD) (−) Ara
[23] = S. aureus FabI, read-out: IC50 saFabI

T1 sequence (P0AEK4 whole entry): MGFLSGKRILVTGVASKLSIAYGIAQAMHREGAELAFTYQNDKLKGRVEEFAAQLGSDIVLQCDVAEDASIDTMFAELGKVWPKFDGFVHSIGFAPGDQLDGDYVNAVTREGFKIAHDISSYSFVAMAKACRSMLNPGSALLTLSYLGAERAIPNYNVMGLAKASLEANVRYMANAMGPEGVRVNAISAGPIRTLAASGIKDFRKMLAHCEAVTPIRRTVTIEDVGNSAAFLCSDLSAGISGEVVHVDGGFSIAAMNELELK

## CCCCC[C@H](CC(=O)NO)C(=O)N[C@H](C(=O)N1CCC[C@H]1CO)C(C)C [Actinonin]
[1]; [15]
  MIC: 1 µg/mL (≈ 2.59 µM)
[1]; [16]
  MIC: 1 µg/mL (≈ 2.59 µM)
[2]; [17]
  MIC: 1 µg/mL (≈ 2.59 µM)
[2]; [18]
  MIC: 1 µg/mL (≈ 2.59 µM)
[3]; [19]
  MIC: 1 µg/mL (≈ 2.59 µM)
[3]; [20]
  MIC: 1 µg/mL (≈ 2.59 µM)
[4]; [21]
  MIC: 1 µg/mL (≈ 2.59 µM)
[4]; [22]
  MIC: 1 µg/mL (≈ 2.59 µM)

## CC1(C)S[C@@H]2[C@H](NC(=O)[C@H](N)c3ccccc3)C(=O)N2[C@H]1C(=O)O [Ampicillin]
[1]; [15]
  MIC: 1 µg/mL (≈ 2.86 µM)
[1]; [16]
  MIC: 1 µg/mL (≈ 2.86 µM)
[2]; [17]
  MIC: > 125 µg/mL
[2]; [18]
  MIC: > 125 µg/mL
[3]; [19]
  MIC: > 125 µg/mL
[3]; [20]
  MIC: > 125 µg/mL
[4]; [21]
  MIC: > 125 µg/mL
[4]; [22]
  MIC: > 125 µg/mL

## C=CC(C)(C)C12C=C(O)C(=O)N3/C(=C/c4cnc[nH]4)C(=O)NC31Nc1ccccc12 (stereo not shown) [Compound 2, glandicolin A]
[5]
  IC50: 49.7 µM
[6]
  MIC: 64 µg/mL (≈ 159 µM)
[7]
  MIC: 64 µg/mL (≈ 159 µM)
[8]
  IC50: 54.6 µM
[9]
  IC50: > 200 µM
[10]
  MIC: 64 µg/mL (≈ 159 µM)

## CC[C@H]1OC(=O)[C@H](C)[C@@H](O[C@H]2C[C@@](C)(OC)[C@@H](O)[C@H](C)O2)[C@H](C)[C@@H](O[C@@H]2O[C@H](C)C[C@H](N(C)C)[C@H]2O)[C@](C)(O)C[C@@H](C)C(=O)[C@H](C)[C@@H](O)[C@]1(C)O [Erythromycin, reference compound]
[11]
  MIC: 64 µg/mL (≈ 87.2 µM)
[7]
  MIC: 0.5 µg/mL (≈ 0.681 µM)
[8]; [23]
  IC50: > 100 µM
[12]
  MIC: 64 µg/mL (≈ 87.2 µM)

## CCn1cc(C(=O)O)c(=O)c2cc(F)c(N3CCNCC3)cc21 [Norfloxacin, reference compound]
[13]
  Inhibition of precursor incorporation, [2-14C] Thymidine: 83%
[11]
  MIC: 1 µg/mL (≈ 3.13 µM)
[14]
  Inhibition of precursor incorporation, [2-14C] Thymidine: 79%
[7]
  MIC: 1 µg/mL (≈ 3.13 µM)
[8]; [23]
  IC50: > 100 µM
[12]
  MIC: 1 µg/mL (≈ 3.13 µM)

## Cc1onc(-c2ccccc2)c1C(=O)N[C@@H]1C(=O)N2[C@@H]1SC(C)(C)[C@@H]2C(=O)O [Oxacillin, reference compound]
[11]
  MIC: 0.25 µg/mL (≈ 0.623 µM)
[7]
  MIC: 0.25 µg/mL (≈ 0.623 µM)
[8]
  IC50: > 100 µM
[12]
  MIC: 0.25 µg/mL (≈ 0.623 µM)

## C/C=C/C/C=C/CCC(=O)[C@H]1O[C@H]1C(N)=O [cerulenin, reference compound]
[13]
  Inhibition of precursor incorporation, [1-14C] Acetate: 95%

## O=C(N[C@H](CO)[C@H](O)c1ccc([N+](=O)[O-])cc1)C(Cl)Cl [chlorampenicol, chloramphenicol, reference compound]
[13]
  Inhibition of precursor incorporation, L-[U-14C] Isoleucine: 85%
[14]
  Inhibition of precursor incorporation, L-[U-14C] Isoleucine: 74%

## CO[C@H]1/C=C/O[C@@]2(C)Oc3c(C)c(O)c4c(O)c(c(/C=N/N5CCN(C)CC5)c(O)c4c3C2=O)NC(=O)/C(C)=C\C=C\[C@H](C)[C@H](O)[C@@H](C)[C@@H](O)[C@@H](C)[C@H](OC(C)=O)[C@@H]1C [rifampin, reference compound]
[13]
  Inhibition of precursor incorporation, [U-14C] Uridine: 92%
[14]
  Inhibition of precursor incorporation, [U-14C] Uridine: 69%

## CN[C@H](CC(C)C)C(=O)N[C@H]1C(=O)N[C@@H](CC(N)=O)C(=O)N[C@H]2C(=O)N[C@H]3C(=O)N[C@H](C(=O)N[C@H](C(=O)O)c4cc(O)cc(O)c4-c4cc3ccc4O)[C@H](O)c3ccc(c(Cl)c3)Oc3cc2cc(c3O[C@@H]2O[C@H](CO)[C@@H](O)[C@H](O)[C@H]2O[C@H]2C[C@](C)(N)[C@H](O)[C@H](C)O2)Oc2ccc(cc2Cl)[C@H]1O [vancomycin, reference compound]
[13]
  Inhibition of precursor incorporation, N-Acetyl-D-[1-14C] Glucosamine: 88%
[14]
  Inhibition of precursor incorporation, N-Acetyl-D-[1-14C] Glucosamine: 79%
